Reference: patent US10682427B2, “Intra-operative imaging” (BRACCO IMAGING S.P.A., priority 2014, dated 2020)

Assays:
[1] = target: αvβ3 integrin (Homo sapiens, UniProt P05106+P06756); experiment: In vitro competitive binding assay with biotinylated vitronectin; details: competitor biotinylated vitronectin 1 μg/mL, average value from a triplicate test, read-out: IC50 (vitronectine IC50)
Procedure: (§1) The affinity of DA364 for its specific targeted (the integrin αvβ3) and its crossreactivity for other integrins (e.g. αvβ1, αvβ5) was assessed by in vitro binding tests.
(§2) A 96-well microtiter plate (MediSorp, Nunc) was coated overnight at 4° C., with tested integrins (0.5 μg/mL, diluted in coating/washing buffer (20 mM Tris HCl pH 7.4; 150 mM NaCl; 1 mM MnCl2; 0.5 mM MgCl2; 2 mM CaCl2). After coating, the plate is rinsed with washing buffer and then incubated in blocking buffer (3% BSA in coating buffer) for 2 h at room temperature (RT) (24° C. in Thermomixer, under shaking). The plate was then rinsed in washing buffer and incubated at RT for 3 h with DA364 (concentration range from 5000 to 0.005 nM). DA364 solutions were prepared by serially diluting a stock solution of the NIR agent in 1% BSA in coating buffer in presence of biotinylated vitronectin (1 μg/mL, cod. HVN-U605, Molecular Innovations). The plate is then rinsed again and incubated with Streptavidin-HRP (cod.EG RPN 1051, GE Healthcare) (1:10000 in PBS) 1 h at RT, binding the biotinylated vitronectin. After additional washes in PBS, the plate was incubated with TMB solution (3,3′,5,5′-tetramethylbenzidine) (cod.T-0440, Sigma-Aldrich) for 5-10 min and the colorimetric reaction was then stopped by addition of 2 N sulfuric acid. The quantification of the IC50 for DA364 was performed by measuring the competitor (biotinylated vitronectin) by reading the absorbance at 450 nm. IC50 values were determined by least-square non-linear regression analysis.

[2] = target: αvβ1 integrin (Homo sapiens, UniProt P05556+P06756); experiment: as above; details: competitor biotinylated vitronectin 1 μg/mL, read-out: IC50 (vitronectine IC50)
Procedure: as §1, §2

[3] = target: αvβ5 integrin (Homo sapiens, UniProt P06756+P18084); experiment: as above; details: competitor biotinylated vitronectin 1 μg/mL, read-out: IC50 (vitronectine IC50)
Procedure: as §1, §2

[4] = Determination of the molar extinction coefficient (UV-VIS absorbance, linear regression); type: physicochemical; details: in PBS
Procedure: Two standard stock solutions containing the NIR agent in PBS at 1000 μM (sol I: 1.27 mg, 0.884 mL) and 1250 μM (sol II: 7.03 mg, 3.915 mL) were prepared. Diluted standard solutions were then prepared as reported in Table A by diluting the stock solutions in an appropriate volumetric flask using PBS. The absorbance of each standard diluted solution was measured without any further dilution.
The absorbance of each diluted standard solutions was measured and the molar extinction coefficient of DA364 was calculated from the slope of the linear regression reported in FIG. 1. The measured extinction coefficient in this condition was 208500 M^−1·cm^−1 (corresponding to 83% of the theoretical value reported for Cy5.5 dye: 250000 M^−1·cm^−1).

IC50 [1]: 3.76 nM
IC50 [2]: 28 nM
IC50 [3]: 281 nM
SMILES: CC[N+]1=C(/C=C/C=C/C=C2/N(CCCCCC(=O)NC[C@@H]3C[C@@H]4CC[C@H]5C(=O)N[C@@H](CCCNC(=N)N)C(=O)NCC(=O)N[C@@H](CC(=O)O)C(=O)N[C@H]3C(=O)N45)c3ccc4c(S(=O)(=O)O)cc(S(=O)(=O)O)cc4c3C2(C)C)C(C)(C)c2c1ccc1c(S(=O)(=O)[O-])cc(S(=O)(=O)O)cc21 [DA364]
extinction coefficient as percent of the theoretical value reported for Cy5.5 dye [4]: 83%
molar extinction coefficient [4]: 208500 M⁻¹ cm⁻¹
